In brackets after ≈: the same amount, converted by molar mass.
Key:
[1] = PAMPA BBB permeability model; format: in vitro ADME; settings: pH 7.4
Experimental: (§1) The injection volume differed depending on the assay. […] The method’s duration was 12 min.
The sandwich consists of two 96-well microfilter plates.

in vitro = settings: PAMPA, pH 6.8
Experimental: Concentrations of curcumin and piperine during solubility, dissolution rate, and permeability studies were measured by high-performance liquid chromatography with the DAD detector (HPLC-DAD). In this study, a Shimadzu Nexera system (Shimadzu Corp., Kyoto, Japan) was used, equipped with an SCL-40 system controller, a DGU-403 degassing unit, a LC-40B XR solvent delivery module, a SIL-40C autosampler, a CTO-40C column oven, and a SPD-M40 photodiode array detector. For the stationary phase, a Dr. Maisch ReproSil-Pur Basic-C18 100 Å column with 5 µm particle size and 250 × 4.60 mm (Dr. Maisch, Ammerbuch-Entringen, Germany) was used. The mobile phase was acetonitrile:0.1% acetic acid (85:15 v/v). The mobile phase was vacuum-filtered through a 0.45 µm nylon filter (Phenomenex, Torrance, CA, USA). The experimental conditions were as follows: 0.5 mL/min flow rate, wavelengths of 420 nm for curcumin and 340 nm for piperine, and a column temperature of 30 °C. The injection volume differed depending on the assay. […] The method’s duration was 12 min. […]
In vitro gastrointestinal (GIT) and blood–brain barrier (BBB) permeability were studied using the PAMPA (Parallel Artificial Membrane Permeability Assay) models. […] The Papp factor was calculated according to the previously reported method. […] The results were expressed as a concentration in the acceptor solution.

[2] = Dissolution study, paddle apparatus, phosphate buffer pH 6.8; format: physicochemical; settings: phosphate buffer pH 6.8, 37 °C, 50 rpm; after one hour (plateau)
Experimental: as §1
(§2) Phosphate buffer at pH 6.8 was prepared according to the following description: in a 1000 mL volumetric flask, we placed 250 mL of 0.2 N potassium dihydrogen phosphate solution, then added 112 mL of 0.2 N sodium hydroxide solution, and filled the mixture up to 1000 mL with distilled water. High-quality pure water was prepared using a Direct-Q 3 UV purification system (Millipore, Molsheim, France, model Exil SA 67120).
The dissolution study was performed on the paddle apparatus (Agilent 708-DS dissolution apparatus, Santa Clara, CA, USA). The amount of the compound and systems corresponding to 7.0 mg of each plant-origin active ingredient was added to the gelatin capsule, placed in a spring used as a sinker, and then added to the dissolution medium. The vessels were filled with 500 mL of phosphate buffer, pH 6.8; the temperature was maintained at 37 °C, and the paddles were set at a stirring speed of 50 rotations per minute. The 2.0 mL samples were withdrawn at predetermined time points (5 min, 15 min, 30 min, 1 h, 2 h, 3 h, 4 h, 5 h, and 6 h) with the replacement of equal volumes of temperature-equilibrated media.

[3] = Apparent solubility study in phosphate buffer pH 6.8; format: physicochemical
Experimental: as §1, §2
An excess amount of raw compounds and systems (corresponding to 1.5 mg of each substance) was placed in a 10 mL glass tube; then, 2.0 mL of phosphate buffer (pH 6.8) was added and left at room temperature for 3 h.

Structure (SMILES)	Papp at 3 h [1] [×10⁻⁶ cm/s]	Papp at 3 h (in vitro) [×10⁻⁶ cm/s]	curcumin dissolved, % of the dose [2] [%]	solubility at 3 h [3] [µg/mL]	piperine dissolved, % of the dose [2] [%]
COc1cc(/C=C/C(=O)CC(=O)/C=C/c2ccc(O)c(OC)c2)ccc1O [curcumin]	2.63	1.63	2.54 ± 0.15	0.1 (≈ 0.271 µM)	–
O=C(/C=C/C=C/c1ccc2c(c1)OCO2)N1CCCCC1 [piperine]	57.7	8.18	–	6 ± 0.1 (≈ 21 µM)	22.63 ± 0.67
